Our source for the IC50 values is patent US12404295B2, “(Hetero)aryl-methyl-thio-beta-D-galactopyranoside derivatives” (Idorsia Pharmaceuticals Ltd, priority 2019, dated 2025).

One experiment has as its target human Gal-3 (hGal-3) (Homo sapiens (Human), UniProt P17931). The experiment is described as follows: competitive binding assay: biotinylated hGal-3 binding to microplate-adsorbed asialofetuin (ASF). An outline of the steps:
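Peroxidase activity developed with ABTS measures the biotinylated hGal-3 remaining on the asialofetuin-coated surface after competition with test compounds. Incubation ran 3 h at 4 °C, followed by 1 h with streptavidin-peroxidase at 80 ng/mL.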

The next experiment addresses human Gal-1 (hGal-1) (Homo sapiens (Human), UniProt P09382). The experiment is described as follows: competitive binding assay: biotinylated hGal-1 binding to microplate-adsorbed asialofetuin (ASF). Particulars: Table 15; read-out: IC50 (Galectin-1 inhibition). An outline of the steps:
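Biotinylated human Gal-1 (300-1000 ng/mL) competes with serially diluted compound for binding to ASF-coated plates, 3 h at 4° C. Bound protein detected with streptavidin-peroxidase and ABTS substrate (spectrophotometric). IC50 given as mean of several measurements.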

The mark [1] stands for this setting: Gal-3 inhibition, binding of biotinylated hGal-3 to ASF, mean values, read-out: IC50.
[2] abbreviates: Table 5, read-out: IC50 (Gal-3 inhibition).
[3] abbreviates: Table 11, read-out: IC50 (Gal-3 inhibition).

Like-named read-outs stand apart in the source and are kept apart here.

human Gal-3 (hGal-3), sequence (P17931 whole entry): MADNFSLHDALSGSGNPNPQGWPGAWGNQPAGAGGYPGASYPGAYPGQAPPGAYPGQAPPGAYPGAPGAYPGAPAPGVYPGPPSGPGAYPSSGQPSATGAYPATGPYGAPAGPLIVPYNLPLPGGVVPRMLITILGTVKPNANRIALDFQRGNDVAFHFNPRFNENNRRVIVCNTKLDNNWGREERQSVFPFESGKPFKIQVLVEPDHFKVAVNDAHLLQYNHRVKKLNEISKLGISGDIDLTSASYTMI
human Gal-1 (hGal-1), sequence (P09382 whole entry): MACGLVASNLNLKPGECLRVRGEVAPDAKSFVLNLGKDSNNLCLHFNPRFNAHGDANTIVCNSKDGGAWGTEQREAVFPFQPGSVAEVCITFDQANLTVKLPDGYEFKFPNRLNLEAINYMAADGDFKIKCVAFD

Consider `CCO[C@@H]1[C@@H](n2cc(-c3cc(F)c(F)c(F)c3)nn2)[C@@H](O)[C@@H](CO)O[C@H]1S[C@@H](c1ncccc1C)C1(O)CCC(F)(F)CC1` [Example 2.44.126S.II., (2R,3R,4S,5R,6S)-6-(((S)-(4,4-Difluoro-1-hydroxycyclohexyl)(3-methylpyridin-2-yl)methyl)thio)-5-ethoxy-2-(hydroxymethyl)-4-(4-(3,4,5-trifluorophenyl)-1H-1,2,3-triazol-1-yl)tetrahydro-2H-pyran-3-ol], for which the results for the IC50 at human Gal-3 (hGal-3) (setting [1]) and at human Gal-1 (hGal-1) were 980 nM and 24300 nM, respectively.
On to `CC(C)c1ccccc1C(S[C@@H]1O[C@H](CO)[C@H](O)[C@H](n2cc(-c3cc(F)c(F)c(F)c3)nn2)[C@H]1O)C1(O)CCC(F)(F)CC1` (stereo partly drawn) [Example 2.44.105., (2S,3R,4S,5R,6R)-2-(((4,4-Difluoro-1-hydroxycyclohexyl)(2-isopropylphenyl)methyl)thio)-6-(hydroxymethyl)-4-(4-(3,4,5-trifluorophenyl)-1H-1,2,3-triazol-1-yl)tetrahydro-2H-pyran-3,5-diol [1,3-di-deoxy-1-((4,4-difluoro-1-hydroxy-cyclohexan-1-yl)-(2-(-isopropyl)phenyl)methyl-thio)-3-[4-(3,4,5-trifluorophenyl)-1H-1,2,3-triazol-1-yl]-β-D-galactopyranoside]], for which the IC50 at human Gal-3 (hGal-3) (setting [2]) is 140 nM; at human Gal-1 (hGal-1) it was 80 nM.
Turning to `Cc1nc(C)c([C@@H](S[C@@H]2O[C@H](CO)[C@H](O)[C@H](n3cc(-c4cc(F)c(F)c(F)c4)nn3)[C@H]2O)C2(O)CCCCC2)nc1C` [Example 2.39.119R., (2S,3R,4S,5R,6R)-2-(((R)-(1-Hydroxycyclohexyl) (3,5,6-trimethylpyrazin-2-yl)methyl)thio)-6-(hydroxymethyl)-4-(4-(3,4,5-trifluorophenyl)-1H-1,2,3-triazol-1-yl)tetrahydro-2H-pyran-3,5-diol], the IC50 at human Gal-3 (hGal-3) (setting [2]) worked out at 70 nM; on human Gal-1 (hGal-1), 730 nM.
On to `CCc1cccnc1C(S[C@@H]1O[C@H](CO)[C@H](O)[C@H](n2cc(-c3cc(F)c(F)c(F)c3)nn2)[C@H]1OC)C1(O)CCC(F)(F)CC1` (stereo partly drawn) [Example 2.44.142.I., (2R,3R,4S,5R,6S)-6-(((4,4-Difluoro-1-hydroxycyclohexyl)(3-ethylpyridin-2-yl)methyl)thio)-2-(hydroxymethyl)-5-methoxy-4-(4-(3,4,5-trifluorophenyl)-1H-1,2,3-triazol-1-yl)tetrahydro-2H-pyran-3-ol], for which the IC50 worked out at 50 nM at human Gal-3 (hGal-3) (setting [3]) and 190 nM at human Gal-1 (hGal-1).
Turning to `CC(C)(O)C(S[C@@H]1O[C@H](CO)[C@H](O)[C@H](n2cc(-c3cc(F)c(F)c(F)c3)nn2)[C@H]1O)c1ccccc1` (stereo partly drawn) [Example 2.31.100., (2S,3R,4S,5R,6R)-2-((2-Hydroxy-2-methyl-1-phenylpropyl)thio)-6-(hydroxymethyl)-4-(4-(3,4,5-trifluorophenyl)-1H-1,2,3-triazol-1-yl)tetrahydro-2H-pyran-3,5-diol], the IC50 at human Gal-3 (hGal-3) (setting [1]) was found to be 1900 nM; at human Gal-1 (hGal-1), 3710 nM.
Consider `CCC(O)(CC)[C@@H](S[C@@H]1O[C@H](CO)[C@H](O)[C@H](n2cc(-c3cc(F)c(F)c(F)c3)nn2)[C@H]1O)c1conc1C` [Example 2.32.120S., (2S,3R,4S,5R,6R)-2-(((S)-2-Ethyl-2-hydroxy-1-(3-methylisoxazol-4-yl)butyl)thio)-6-(hydroxymethyl)-4-(4-(3,4,5-trifluorophenyl)-1H-1,2,3-triazol-1-yl)tetrahydro-2H-pyran-3,5-diol], for which the IC50 at human Gal-3 (hGal-3) (setting [1]) worked out at 11300 nM; at human Gal-1 (hGal-1), 77400 nM.
For the compound `Cc1nc(C)c([C@@H](S[C@@H]2O[C@H](CO)[C@H](O)[C@H](n3cc(-c4cc(F)c(F)c(F)c4)nn3)[C@H]2O)C2(O)CCC(F)(F)CC2)nc1C` [Example 2.44.119R., (2S,3R,4S,5R,6R)-2-(((R)-(4,4-Difluoro-1-hydroxycyclohexyl)(3,5,6-trimethylpyrazin-2-yl)methyl)thio)-6-(hydroxymethyl)-4-(4-(3,4,5-trifluorophenyl)-1H-1,2,3-triazol-1-yl)tetrahydro-2H-pyran-3,5-diol], the IC50 on human Gal-3 (hGal-3) (setting [2]) stood at 30 nM; on human Gal-1 (hGal-1), 230 nM.
As for `CO[C@@H]1[C@@H](n2cc(-c3cc(F)c(F)c(F)c3)nn2)[C@@H](O)[C@@H](CO)O[C@H]1S[C@H](c1nccc(C(F)(F)F)c1C)C1(O)CCC(F)(F)CC1` [Example 2.44.147R.I., (2R,3R,4S,5R,6S)-6-(((R)-(4,4-Difluoro-1-hydroxycyclohexyl)(3-methyl-4-(trifluoromethyl)pyridin-2-yl)methyl)thio)-2-(hydroxymethyl)-5-methoxy-4-(4-(3,4,5-trifluorophenyl)-1H-1,2,3-triazol-1-yl)tetrahydro-2H-pyran-3-ol], the values for the IC50 on human Gal-3 (hGal-3) (setting [3]) and on human Gal-1 (hGal-1) were 190 nM and 760 nM, respectively.
Turning to `CC(C)(O)[C@@H](S[C@@H]1O[C@H](CO)[C@H](O)[C@H](n2cc(-c3cc(F)c(F)c(F)c3)nn2)[C@H]1O)c1ccccc1-c1ccccc1` [Example 2.31.110S., (2S,3R,4S,5R,6R)-2-(((S)-1-([1,1′-Biphenyl]-2-yl)-2-hydroxy-2-methylpropyl)thio)-6-(hydroxymethyl)-4-(4-(3,4,5-trifluorophenyl)-1H-1,2,3-triazol-1-yl)tetrahydro-2H-pyran-3,5-diol], the IC50 on human Gal-3 (hGal-3) (setting [1]) came out at 4900 nM; at human Gal-1 (hGal-1) it was 16700 nM.
Taken in the same sequence, the figures for `CS(=O)(=O)N1CCC(O)([C@@H](S[C@@H]2O[C@H](CO)[C@H](O)[C@H](n3cc(-c4cc(F)c(F)c(F)c4)nn3)[C@H]2O)c2ccccc2C(F)(F)F)CC1` [Example 2.47.112S., (2S,3R,4S,5R,6R)-2-(((S)-(4-Hydroxy-1-(methylsulfonyl)piperidin-4-yl)(2-(trifluoromethyl)phenyl)methyl)thio)-6-(hydroxymethyl)-4-(4-(3,4,5-trifluorophenyl)-1H-1,2,3-triazol-1-yl)tetrahydro-2H-pyran-3,5-diol] were 2820 nM and 17500 nM.
Take `OC[C@H]1O[C@@H](S[C@@H](c2ncccc2C(F)(F)F)C2(O)CCCC2)[C@H](O)[C@@H](n2cc(-c3cc(F)c(F)c(F)c3)nn2)[C@H]1O` [Example 2.38.125S., (2S,3R,4S,5R,6R)-2-(((S)-(1-Hydroxycyclopentyl)(3-(trifluoromethyl)pyridin-2-yl)methyl)thio)-6-(hydroxymethyl)-4-(4-(3,4,5-trifluorophenyl)-1H-1,2,3-triazol-1-yl)tetrahydro-2H-pyran-3,5-diol]: the values for the IC50 at human Gal-3 (hGal-3) (setting [1]) and on human Gal-1 (hGal-1) were 5620 nM and 15100 nM, respectively.
Take `Cc1ccccc1C(S[C@@H]1O[C@H](CO)[C@H](O)[C@H](n2cc(-c3cc(F)c(F)c(F)c3)nn2)[C@H]1O)C1(O)CCCC1` (stereo partly drawn) [Example 2.38.102., (2S,3R,4S,5R,6R)-2-(((1-Hydroxycyclopentyl)(o-tolyl)methyl)thio)-6-(hydroxymethyl)-4-(4-(3,4,5-trifluorophenyl)-1H-1,2,3-triazol-1-yl)tetrahydro-2H-pyran-3,5-diol]: the results for the IC50 at human Gal-3 (hGal-3) (setting [2]) and on human Gal-1 (hGal-1) were 180 nM and 2900 nM, respectively.
Take `CO[C@@H]1[C@@H](n2cc(-c3cc(F)c(Cl)c(F)c3)nn2)[C@@H](O)[C@@H](CO)O[C@H]1SC(c1ncccc1C)C1(O)CCC(F)(F)CC1` (stereo partly drawn) [Example 11.44.126.I., (2R,3R,4S,5R,6S)-4-(4-(4-Chloro-3,5-difluorophenyl)-1H-1,2,3-triazol-1-yl)-6-(((4,4-difluoro-1-hydroxycyclohexyl)(3-methylpyridin-2-yl)methyl)thio)-2-(hydroxymethyl)-5-methoxytetrahydro-2H-pyran-3-ol]: the IC50 was determined as 90 nM on human Gal-3 (hGal-3) (Table 14, read-out: IC50 (Gal-3 inhibition)) and 2430 nM at human Gal-1 (hGal-1).
Regarding `CO[C@@H]1[C@@H](n2cc(-c3cc(F)c(F)c(F)c3)nn2)[C@@H](O)[C@@H](CO)O[C@H]1S[C@@H](c1nccnc1Cl)C1(O)CCC(F)(F)CC1` [Example 2.44.133S.I., (2R,3R,4S,5R,6S)-6-(((S)-(3-Chloropyrazin-2-yl)(4,4-difluoro-1-hydroxycyclohexyl)methyl)thio)-2-(hydroxymethyl)-5-methoxy-4-(4-(3,4,5-trifluorophenyl)-1H-1,2,3-triazol-1-yl)tetrahydro-2H-pyran-3-ol], the IC50 came out at 2710 nM on human Gal-3 (hGal-3) (Table 10, 2-OMe-Gal inhibitors, read-out: IC50 (Gal-3 inhibition)) and 7540 nM at human Gal-1 (hGal-1).
As for `CC(C)c1ccccc1C(S[C@@H]1O[C@H](CO)[C@H](O)[C@H](n2cc(-c3cc(F)c(F)c(F)c3)nn2)[C@H]1O)C(C)(C)O` (stereo partly drawn) [Example 2.31.105., (2S,3R,4S,5R,6R)-2-((2-Hydroxy-1-(2-isopropylphenyl)-2-methylpropyl)thio)-6-(hydroxymethyl)-4-(4-(3,4,5-trifluorophenyl)-1H-1,2,3-triazol-1-yl)tetrahydro-2H-pyran-3,5-diol], the IC50 at human Gal-3 (hGal-3) (setting [1]) was 180 nM; at human Gal-1 (hGal-1), 300 nM.
Turning to `CO[C@@H]1[C@@H](n2cc(-c3cc(F)c(F)c(F)c3)nn2)[C@@H](O)[C@@H](CO)O[C@H]1SC(c1nc(C)c(C)nc1C)C1(O)CCC(F)(F)CC1` (stereo partly drawn) [Example 2.44.119.I., (2R,3R,4S,5R,6S)-6-(((4,4-Difluoro-1-hydroxycyclohexyl)(3,5,6-trimethylpyrazin-2-yl)methyl)thio)-2-(hydroxymethyl)-5-methoxy-4-(4-(3,4,5-trifluorophenyl)-1H-1,2,3-triazol-1-yl)tetrahydro-2H-pyran-3-ol], the IC50 amounted to 260 nM at human Gal-3 (hGal-3) (setting [3]) and 1300 nM on human Gal-1 (hGal-1).
With `CC(C)(O)[C@H](S[C@@H]1O[C@H](CO)[C@H](O)[C@H](n2cc(-c3cc(F)c(F)c(F)c3)nn2)[C@H]1O)c1cccnc1C(F)(F)F` [Example 2.31.118R., (2S,3R,4S,5R,6R)-2-(((R)-2-hydroxy-2-methyl-1-(2-(trifluoromethyl)pyridin-3-yl)propyl)thio)-6-(hydroxymethyl)-4-(4-(3,4,5-trifluorophenyl)-1H-1,2,3-triazol-1-yl)tetrahydro-2H-pyran-3,5-diol], the IC50 on human Gal-3 (hGal-3) (setting [1]) was determined as 210 nM; on human Gal-1 (hGal-1) it was 640 nM.
